Consider 27 molecules from US5496844A, “Indole derivatives” (Otsuka Pharmaceutical Factory, Inc., priority 1992, dated 1996).

The assay deals with T1, rat uterus cytoplasm estrogen receptor (Rattus norvegicus, UniProt P06211).
T1 construct: the homogenate was centrifuged to give a cytoplasm fraction; from tissue; host or cells: uterus of female SD rats aged 3 to 4 weeks, cytoplasm fraction
T1 sequence (P06211 1-600): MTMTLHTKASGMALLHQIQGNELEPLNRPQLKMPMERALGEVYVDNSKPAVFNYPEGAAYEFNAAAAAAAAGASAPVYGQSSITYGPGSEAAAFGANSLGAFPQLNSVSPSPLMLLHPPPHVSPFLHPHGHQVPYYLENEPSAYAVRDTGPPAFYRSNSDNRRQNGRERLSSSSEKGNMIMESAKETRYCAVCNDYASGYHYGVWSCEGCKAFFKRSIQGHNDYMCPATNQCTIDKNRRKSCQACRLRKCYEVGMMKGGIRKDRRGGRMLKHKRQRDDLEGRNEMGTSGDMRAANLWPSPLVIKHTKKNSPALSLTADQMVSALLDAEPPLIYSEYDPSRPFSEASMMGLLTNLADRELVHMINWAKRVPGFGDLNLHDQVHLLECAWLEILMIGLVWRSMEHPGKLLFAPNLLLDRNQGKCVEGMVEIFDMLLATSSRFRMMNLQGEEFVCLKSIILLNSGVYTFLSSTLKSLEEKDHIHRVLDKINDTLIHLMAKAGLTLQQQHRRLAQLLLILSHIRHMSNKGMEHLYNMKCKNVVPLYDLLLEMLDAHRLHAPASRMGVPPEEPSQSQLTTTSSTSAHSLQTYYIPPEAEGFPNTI
Kind of assay: inhibition of specific binding of [3H]-moxestrol to rat uterus cytoplasm estrogen receptor. Further details: species or system rat (female SD). The note with it: relative to moxestrol as control compound; rat uterus cytoplasm fraction; 4° C., 16 hours; DCC method. As for the experimental part: Test for inhibitory activity against the specific binding of [^3 H]-moxestrol to the rat uterus cytoplasm estrogen receptor
The above activity was measured essentially as described in the literature [J. Biol. Chem., 258 (5), 3173 (1973) and Biochem. Pharmacol., 43 (12), 2511 (1992)].
Thus, the uterus was excised from female SD rats aged 3 to 4 weeks and homogenized in 6 volumes of TETG buffer (10 mM Tris-hydrochloride, 1 mM EDTA, 12 mM thioglycerol and 10% glycerol) and the homogenate was centrifuged to give a cytoplasm fraction. ^3 H-Moxestrol and each test compound were added to this cytoplasm fraction and each mixture was incubated at 4° C. for 16 hours to allow binding to the estrogen receptor in the cytoplasm fraction.
Then, the free form of ^3 H-moxestrol was removed by the DCC method and the bound form of ^3 H-moxestrol was quantitated using a liquid scintillation counter.
Moxestrol was used as a control compound and the relative binding affinity (RBA), which was defined as the ^3 H-moxestrol binding inhibiting effect (IC50) ratio, was determined as follows: [formula]
The thus-obtained RBA values for the respective test compounds are shown below in Table 21.
For `CSc1ccc(-c2c(C)c3cc(O)ccc3n2CCCCCCCC(=O)N(C)C)cc1` [Example 253], the “RBA (relative binding affinity, 3H-moxestrol binding inhibiting effect (IC50) ratio)” value is 94%.
The same measure for `CSc1ccc(-c2c(C)c3cc(O)ccc3n2CCCCCCCCN2CCOCC2)cc1` [Example 272]: 48%.
The same measure for `CSc1ccc(-c2c(C)c3cc(O)ccc3n2CCCCCCN2CCSC2)cc1` [Example 291]: 70%; for `CSc1ccc(-c2c(C)c3cc(O)ccc3n2CCCCCCNC(C)c2ccccc2)cc1` (stereo not drawn) [Example 312, 5-hydroxy-3-methyl-2-(4-methylthiophenyl)-1-[6-(1-phenylethyl)aminohexyl]indole]: 42%.
The same measure for `CSc1ccc(-c2c(C)c3cc(O)ccc3n2CCCCCCCC(=O)NC2CCC2)cc1` [Example 254]: 78%; for `O=C(c1ccc(OCCCN2CCCC2)cc1)n1c(-c2ccc(Sc3ccccc3)cc2)cc2cc(O)ccc21` [Example 238]: 49%.
With `CSc1ccc(-c2c(C)c3cc(O)ccc3n2CCCCCCNC2CCC2)cc1` [Example 175, 1-(6-cyclobutylaminohexyl)-5-hydroxy-3-methyl-2-(4-methylthiophenyl)indole], the “RBA (relative binding affinity, 3H-moxestrol binding inhibiting effect (IC50) ratio)” value turned out to be 60%.
The same measure for `CCC(C)(C)NCCCCCCn1c(-c2ccc(SC)cc2)c(C)c2cc(O)ccc21` [Example 182]: 57%; for `CSc1ccc(-c2c(C)c3cc(O)ccc3n2CCCCCCCCN(C)C)cc1` [Example 279]: 82%; for `O=C(c1ccc(OCCN2CCCC2)cc1)n1c(-c2ccc(Sc3ccccc3)cc2)cc2cc(O)ccc21` [Example 234, 5-hydroxy-2-(4-phenylthiophenyl)-1-[4-{2-(1-pyrrolidinyl)ethoxy}benzoyl]indole]: 50%.
As to `O=C(c1ccc(OCCn2cncn2)cc1)n1c(-c2ccc(Sc3ccccc3)cc2)cc2cc(O)ccc21` [Example 246], the “RBA (relative binding affinity, 3H-moxestrol binding inhibiting effect (IC50) ratio)” value was 57%.
The same measure for `CSc1ccc(-c2c(C)c3cc(O)ccc3n2CCCCCCNC2CCCC2)cc1` [Example 172]: 44%.
On to `CCSc1ccc(-c2cc3cc(O)ccc3n2CCCCCCCCNC(C)C)cc1` [Example 286], for which the “RBA (relative binding affinity, 3H-moxestrol binding inhibiting effect (IC50) ratio)” value is 51%.
Regarding `CSc1ccc(-c2c(C)c3cc(O)ccc3n2CCCCCCCCN2CCCC2)cc1` [Example 281, 5-hydroxy-3-methyl-2-(4-methylthiophenyl)-1-[8-(1-pyrrolidinyl)octyl]indole], the “RBA (relative binding affinity, 3H-moxestrol binding inhibiting effect (IC50) ratio)” value is on record as 121%.
The same measure for `O=C(c1ccc(OCCCN2CCCCC2)cc1)n1c(-c2ccc(Sc3ccccc3)cc2)cc2cc(O)ccc21` [Example 239]: 73%; for `CSc1ccc(-c2c(C)c3cc(O)ccc3n2CCCCCCCCNC(C)(C)C)cc1` [Example 282]: 114%.
As to `CSc1ccc(-c2c(C)c3cc(O)ccc3n2CCCCCCCCNC2CCC2)cc1` [Example 280], the “RBA (relative binding affinity, 3H-moxestrol binding inhibiting effect (IC50) ratio)” value is listed as 116%.
The same measure for `CSc1ccc(-c2c(C)c3cc(O)ccc3n2CCCCCCCC(=O)NC(C)(C)C)cc1` [Example 255]: 41%; for `CSc1ccc(-c2c(C)c3cc(O)ccc3n2CCCCCCNC(C)(C)C)cc1` [Example 178]: 57%.
The same measure for `CSc1ccc(-c2c(C)c3cc(O)ccc3n2CCCCCCCCNC(C)C)cc1` [Example 274]: 65%; for `CCC(C)NCCCCCCn1c(-c2ccc(SC)cc2)c(C)c2cc(O)ccc21` (stereo not drawn) [Example 179]: 60%; for `CSc1ccc(-c2c(C)c3cc(O)ccc3n2CCCCCCCC(=O)N2CCCCC2)cc1` [Example 258]: 41%.
The same measure for `CSc1ccc(-c2c(C)c3cc(O)ccc3n2CCCCCCCCN2CCCCC2)cc1` [Example 285]: 93%; for `CSc1ccc(-c2c(C)c3cc(O)ccc3n2CCCCCCNCc2ccccc2)cc1` [Example 181]: 52%.
In the case of `CSc1ccc(-c2c(C)c3cc(O)ccc3n2CCCCCCNC2CC2)cc1` [Example 176], the “RBA (relative binding affinity, 3H-moxestrol binding inhibiting effect (IC50) ratio)” value is recorded as 64%.
The same measure for `Cc1c(-c2ccc(Sc3ccccc3)cc2)n(CCCCCCNC(C)C)c2ccc(O)cc12` [Example 161]: 46%.
The same measure for `O=C(c1ccc(OCCN2CCCCC2)cc1)n1c(-c2ccc(Sc3ccccc3)cc2)cc2cc(O)ccc21` [Example 236]: 53%.
